Test results taken from PubChem BioAssay AID248 (DTP/NCI, 2004).
“And” between values parts separate entries of the source, which are not always exact repeats. Identical values can stand only once. Toxic doses and inconclusive results are not listed.

System: L1210 leukemia ip in BDF1 mice, survival T/C
Assay: NCI In Vivo Anticancer Drug Screen. Data for tumor model L1210 Leukemia (intraperitoneal) in B6D2F1 (BDF1) mice
Conditions: endpoint: mean survival time, higher = longer survival
In short: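 Survival endpoint. Drug-treated group vs vehicle group, expressed as T divided by C. Tumor passaged by transplantation.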

[1] = dose: 100.0 mg/kg/injection, schedule: Q04DX003 (ip), vehicle: Klucel (hydroxypropylcellulose) (HPC)
[2] = dose: 200.0 mg/kg/injection, schedule: Q04DX003 (ip), vehicle: Klucel (hydroxypropylcellulose) (HPC)
[3] = dose: 50.0 mg/kg/injection, schedule: Q01DX001 (ip), vehicle: carboxymethylcellulose (CMC)
[4] = dose: 100.0 mg/kg/injection, schedule: Q01DX001 (ip), vehicle: carboxymethylcellulose (CMC)
[5] = dose: 200.0 mg/kg/injection, schedule: Q01DX001 (ip), vehicle: carboxymethylcellulose (CMC)
[6] = dose: 400.0 mg/kg/injection, schedule: Q01DX001 (ip), vehicle: carboxymethylcellulose (CMC)
[7] = dose: 100.0 mg/kg/injection, schedule: Q01DX009 (ip), vehicle: saline
[8] = dose: 200.0 mg/kg/injection, schedule: Q01DX009 (ip), vehicle: saline
[9] = dose: 400.0 mg/kg/injection, schedule: Q01DX009 (ip), vehicle: saline
[10] = dose: 100.0 mg/kg/injection, schedule: Q04DX003 (ip), vehicle: saline with Tween-80
[11] = dose: 200.0 mg/kg/injection, schedule: Q04DX003 (ip), vehicle: saline with Tween-80
[12] = dose: 400.0 mg/kg/injection, schedule: Q04DX003 (ip), vehicle: saline with Tween-80
[13] = dose: 400.0 mg/kg/injection, schedule: Q04DX003 (ip), vehicle: Klucel (hydroxypropylcellulose) (HPC)
[14] = dose: 100.0 mg/kg/injection, schedule: Q04DX003 (ip), vehicle: saline
[15] = dose: 200.0 mg/kg/injection, schedule: Q04DX003 (ip), vehicle: saline
[16] = dose: 400.0 mg/kg/injection, schedule: Q04DX003 (ip), vehicle: saline
[17] = dose: 100.0 mg/kg/injection, schedule: Q01DX001 (ip), vehicle: saline
[18] = dose: 200.0 mg/kg/injection, schedule: Q01DX001 (ip), vehicle: saline
[19] = dose: 50.0 mg/kg/injection, schedule: Q01DX009 (ip), vehicle: saline

With CC(=O)O[C@H]1CCCC[C@@H]1NC(=O)N(CCCl)N=O the T/C (dose: 4.4 mg/kg/injection, schedule: Q01DX001 (ip), vehicle: carboxymethylcellulose (CMC)) was 118 % of control, the T/C (dose: 6.7 mg/kg/injection, schedule: Q01DX001 (ip), vehicle: carboxymethylcellulose (CMC)) was 175 % of control and the T/C (dose: 10.0 mg/kg/injection, schedule: Q01DX001 (ip), vehicle: carboxymethylcellulose (CMC)) was 194 % of control. For the same compound, the T/C (dose: 15.0 mg/kg/injection, schedule: Q01DX001 (ip), vehicle: carboxymethylcellulose (CMC)) was 313 % of control and 338 % of control, the T/C (dose: 27.0 mg/kg/injection, schedule: Q01DX001 (ip), vehicle: carboxymethylcellulose (CMC)) was 446 % of control and the T/C (dose: 40.0 mg/kg/injection, schedule: Q01DX001 (ip), vehicle: carboxymethylcellulose (CMC)) was 404 % of control. The T/C (dose: 60.0 mg/kg/injection, schedule: Q01DX001 (ip), vehicle: carboxymethylcellulose (CMC)) was 196 % of control.

CN/N=C/c1ccc(C(=O)NC(C)C)cc1 was tested, and the T/C (dose: 25.0 mg/kg/injection, schedule: Q04DX003 (ip), vehicle: Klucel (hydroxypropylcellulose) (HPC)) was 98 % of control, the T/C (dose: 50.0 mg/kg/injection, schedule: Q04DX003 (ip), vehicle: Klucel (hydroxypropylcellulose) (HPC)) was 102 % of control and the T/C [1] was 102 % of control. For the same compound, the T/C [2] was 109 % of control.

In the case of C(=Nc1cnc2ccccc2c1)c1ccnc2ccccc12, the T/C [3] is reported as 95 % of control, the T/C [4] is reported as 104 % of control and the T/C [5] is reported as 107 % of control. For the same compound, the T/C [6] was 95 % of control.

In the case of CC(C)(C)OP(O)(=S)OC(C)(C)C, the T/C (dose: 100.0 mg/kg/injection, schedule: Q04DX002 (ip), vehicle: saline) is reported as 94 % of control, the T/C (dose: 200.0 mg/kg/injection, schedule: Q04DX002 (ip), vehicle: saline) is reported as 113 % of control and the T/C (dose: 400.0 mg/kg/injection, schedule: Q04DX002 (ip), vehicle: saline) is reported as 110 % of control.

For CCC(=O)n1c(=O)n(C2CCN(CCCS(=O)(=O)c3ccccc3)CC2)c2ccccc21, the T/C (dose: 50.0 mg/kg/injection, schedule: Q01DX001 (ip), vehicle: Klucel (hydroxypropylcellulose) (HPC)) was 95 % of control, the T/C (dose: 100.0 mg/kg/injection, schedule: Q01DX001 (ip), vehicle: Klucel (hydroxypropylcellulose) (HPC)) was 95 % of control and the T/C (dose: 200.0 mg/kg/injection, schedule: Q01DX001 (ip), vehicle: Klucel (hydroxypropylcellulose) (HPC)) was 100 % of control.

OCC/C=C/CCCO was tested, and the T/C [7] was 97 % of control, the T/C [8] was 96 % of control and the T/C [9] was 94 % of control.

With CCOC(=O)C1CCN(C(=O)c2ccccc2)c2scc(-c3ccccc3)c2C1=O (configuration not stated) the T/C (dose: 50.0 mg/kg/injection, schedule: Q04DX003 (ip), vehicle: saline with Tween-80) was 94 % of control, the T/C [10] was 100 % of control and the T/C [11] was 92 % of control. The T/C [12] was 97 % of control.

With COc1c2c(c(OC)c3c1c(=O)c1ccccc1n3C)OCO2 the T/C [4] was 102 % of control, the T/C [5] was 98 % of control and the T/C (dose: 300.0 mg/kg/injection, schedule: Q01DX001 (ip), vehicle: carboxymethylcellulose (CMC)) was 102 % of control. For the same compound, the T/C [6] was 96 % of control and the T/C (dose: 500.0 mg/kg/injection, schedule: Q01DX001 (ip), vehicle: carboxymethylcellulose (CMC)) was 93 % of control.

Fc1ccccc1NC1=NCCO1 was tested, and the T/C [1] was 101 % of control, the T/C [2] was 95 % of control and the T/C [13] was 92 % of control.

For Nc1cncc2ccccc12, the T/C (dose: 25.0 mg/kg/injection, schedule: Q01DX009 (ip), vehicle: gum acacia) was 96 % of control, the T/C (dose: 25.0 mg/kg/injection, schedule: Q04DX003 (ip), vehicle: gum acacia) was 100 % of control and the T/C (dose: 50.0 mg/kg/injection, schedule: Q01DX009 (ip), vehicle: gum acacia) was 111 % of control. The T/C (dose: 50.0 mg/kg/injection, schedule: Q04DX003 (ip), vehicle: gum acacia) was 98 % of control, the T/C (dose: 100.0 mg/kg/injection, schedule: Q01DX009 (ip), vehicle: gum acacia) was 103 % of control and the T/C (dose: 100.0 mg/kg/injection, schedule: Q04DX003 (ip), vehicle: gum acacia) was 102 % of control and 104 % of control.

O=C1C=CC(=O)N1c1ccc(F)cc1 (tested in a mixture with another compound) was tested, and the T/C (dose: 100.0 mg/kg/injection, schedule: Q04DX003 (ip), vehicle: acetone) was 86 % of control, the T/C (dose: 100.0 mg/kg/injection, schedule: Q04DX003 (ip), vehicle: other) was 97 % of control and the T/C (dose: 200.0 mg/kg/injection, schedule: Q04DX003 (ip), vehicle: acetone) was 86 % of control. For the same compound, the T/C (dose: 200.0 mg/kg/injection, schedule: Q04DX003 (ip), vehicle: other) was 86 % of control and the T/C (dose: 400.0 mg/kg/injection, schedule: Q04DX003 (ip), vehicle: other) was 87 % of control and 95 % of control.

In the case of CSCCC(NC(C)=O)C(=O)O (configuration not stated), the T/C [7] is reported as 99 % of control, the T/C [14] is reported as 94 % of control and the T/C [8] is reported as 86 % of control. The T/C [15] was 91 % of control, the T/C [9] was 96 % of control and the T/C [16] was 91 % of control.

With CC1CCCC[N-]1.CC1CCCC[N-]1.CC1CCCC[N-]1.CC1CCCC[N-]1.N#CS.[Zn+2] (configuration not stated) the T/C [17] was 93 % of control and the T/C [18] was 103 % of control.

For CN1CCC(O)(c2ccccc2)C(C(=O)c2ccccc2)C1 (configuration not stated), the T/C [17] was 101 % of control and the T/C [18] was 93 % of control.

In the case of CC(C)CCCC(C)CCO (configuration not stated), the T/C [19] is reported as 97 % of control, the T/C [7] is reported as 105 % of control and the T/C [8] is reported as 103 % of control.

Nc1c(N=Nc2cccc([N+](=O)[O-])c2)c(S(=O)(=O)O)cc2cc(S(=O)(=O)O)c(N=Nc3ccc(-c4ccc(N=Nc5cc(S(=O)(=O)O)c6ccccc6c5O)cc4)cc3)c(O)c12 was tested, and the T/C (dose: 50.0 mg/kg/injection, schedule: Q01DX010 (ip), vehicle: saline) was 94 % of control, the T/C (dose: 100.0 mg/kg/injection, schedule: Q01DX010 (ip), vehicle: saline) was 100 % of control and the T/C (dose: 200.0 mg/kg/injection, schedule: Q01DX010 (ip), vehicle: saline) was 92 % of control.

CS(=O)(=O)c1ccc(Nn2c(N)nn(-c3ccc(S(C)(=O)=O)cc3)c2=N)cc1 was tested, and the T/C [19] was 93 % of control and 95 % of control and 96 % of control, the T/C [7] was 95 % of control and 86 % of control and the T/C [8] was 97 % of control and 107 % of control and 92 % of control.

In the case of CCOc1cc(/C=N\Nc2nnc(C)n2N)c(C)cc1N(CCCl)CCCl, the T/C (dose: 10.5 mg/kg/injection, schedule: Q01DX015 (ip), vehicle: carboxymethylcellulose (CMC)) is reported as 119 % of control, the T/C (dose: 18.0 mg/kg/injection, schedule: Q01DX015 (ip), vehicle: carboxymethylcellulose (CMC)) is reported as 109 % of control and the T/C (dose: 44.0 mg/kg/injection, schedule: Q01DX001 (ip), vehicle: carboxymethylcellulose (CMC)) is reported as 110 % of control. The T/C [3] was 120 % of control, the T/C (dose: 67.0 mg/kg/injection, schedule: Q01DX001 (ip), vehicle: carboxymethylcellulose (CMC)) was 110 % of control and 116 % of control and the T/C [4] was 111 % of control and 124 % of control. For the same compound, the T/C (dose: 150.0 mg/kg/injection, schedule: Q01DX001 (ip), vehicle: carboxymethylcellulose (CMC)) was 105 % of control and 90 % of control and the T/C [5] was 105 % of control.

With CC(=O)OCC(=O)C1CCC=CC1OC(C)=O (configuration not stated) the T/C [7] was 105 % of control, the T/C [14] was 93 % of control and the T/C [8] was 105 % of control. For the same compound, the T/C [15] was 91 % of control, the T/C [9] was 98 % of control and the T/C [16] was 91 % of control.

CC(=O)Nc1ccc(NC(=O)Nc2ccc(F)c(Cl)c2)cc1 was tested, and the T/C [1] was 92 % of control, the T/C [2] was 97 % of control and the T/C [13] was 95 % of control.

With CCCCCCCCCCCCCCCCCCN1CCSCC1 the T/C (dose: 100.0 mg/kg/injection, schedule: Q01DX009 (ip), vehicle: saline with Tween-80) was 96 % of control and 108 % of control, the T/C (dose: 100.0 mg/kg/injection, schedule: Q04DX002 (ip), vehicle: saline with Tween-80) was 93 % of control and 103 % of control and the T/C [10] was 104 % of control. The T/C (dose: 200.0 mg/kg/injection, schedule: Q01DX009 (ip), vehicle: saline with Tween-80) was 100 % of control and 103 % of control, the T/C (dose: 200.0 mg/kg/injection, schedule: Q04DX002 (ip), vehicle: saline with Tween-80) was 94 % of control and 91 % of control and the T/C [11] was 104 % of control. The T/C (dose: 400.0 mg/kg/injection, schedule: Q01DX009 (ip), vehicle: saline with Tween-80) was 103 % of control and 110 % of control, the T/C (dose: 400.0 mg/kg/injection, schedule: Q04DX002 (ip), vehicle: saline with Tween-80) was 98 % of control and the T/C [12] was 106 % of control.
